Measurements reported in ChEMBL document CHEMBL1128002, “Selective inhibitors of protein kinase C in a model of graft-vs-host disease” (Bioorg Med Chem Lett, 1994).
pIC50: −log10 of the molar value.

Key:
[1] = (§1) Inhibitory activity against protein kinase C from Jurkat cells.; format: cell-based
Rattus norvegicus [2] = organism: Rattus norvegicus; assay: (§2) Inhibitory activity against graft vs host disease in rat.; format: functional
Rattus norvegicus [3] = organism: Rattus norvegicus; assay: as §2; format: functional, organism-based
[4] = as §1; format: cell-based; design: concentration or dose not given beside the values; conditions: dose or concentration not given here

Compound	pIC50 [1]	pIC50 (Rattus norvegicus [3])	Inhibition (Rattus norvegicus [2]) [%]	inhibition [4] [%]
O=C1ON=C(c2cccs2)/C1=C/c1ccc(F)cc1	5.06	5.32	92	98
COc1cc(/C=C2\C(=O)ON=C2c2cccs2)ccc1OC(C)=O	4.96	–	43	82
O=C1ON=C(c2cccs2)/C1=C/c1ccoc1	5.77	5.44	94	100
O=C1ON=C(c2ccc([N+](=O)[O-])cc2)/C1=C/c1cccs1	–	–	–	0
O=C1ON=C(c2cccs2)/C1=C/c1ccsc1	5.54	5.52	95	100
COc1cc(/C=C2\C(=O)ON=C2c2cccs2)cc(OC)c1O	4.96	–	72	–
O=C1ON=C(c2cccs2)C1=CC=Cc1ccccc1	6.00	5.52	93	–
O=C1ON=C(c2cccs2)/C1=C/c1ccc(O)cc1	5.46	5.38	87	93
CC1=CC(C)=N/C1=C/c1c(-c2cccs2)noc1O	–	–	–	19
Cn1cc(/C=C2\C(=O)ON=C2c2cccs2)c2ccccc21	–	–	–	21
Oc1onc(-c2cccs2)c1/C=C1\C=CC=N1	–	–	–	8.9
Nc1ccc(C2=NOC(=O)/C2=C\c2cccs2)cc1	–	–	–	0
O=C1ON=C(c2cccs2)/C1=C/c1ccccc1O	5.26	5.24	87	–
Oc1onc(-c2cccs2)c1/C=C1/C=Nc2ccccc21	–	–	–	48
O=C1ON=C(c2cccs2)/C1=C/c1ccc(Br)cc1	4.08	–	91	100
O=C1ON=C(c2ccccc2)/C1=C/c1ccco1	6.05	5.54	89	84
O=C1ON=C(c2cccs2)/C1=C/c1cccs1	6.00	5.43	97	100
CC(C)(C)c1cc(/C=C2\C(=O)ON=C2c2cccs2)cc(C(C)(C)C)c1O	4.46	–	–	–
COc1cccc(/C=C2\C(=O)ON=C2c2cccs2)c1	4.66	–	66	65
O=C1ON=C(c2cccs2)/C1=C/c1cccc(O)c1	5.00	–	58	–

Further lines, with some results ahead:

pIC50 [1]	pIC50 (Rattus norvegicus [3])	Compound	Inhibition (Rattus norvegicus [2]) [%]	inhibition [4] [%]
4.60	–	O=C1ON=C(c2ccccc2O)/C1=C/c1cccs1	20	–
4.96	5.21	O=C1ON=C(c2cccs2)/C1=C/c1ccc(Cl)cc1	71	82
4.64	–	O=C1ON=C(c2cccs2)/C1=C/c1cccc(Cl)c1	–	24
5.85	5.24	O=C1ON=C(c2cccs2)/C1=C/c1ccco1	88	100
< 4.00	–	COc1ccc(/C=C2\C(=O)ON=C2c2cccs2)c(OC)c1	–	35
5.46	5.47	O=C1ON=C(c2cccs2)/C1=C/c1ccc(O)c(O)c1	87	–
5.28	5.80	Cc1cc(O)cc(C)c1/C=C1\C(=O)ON=C1c1cccs1	88	78
5.60	5.59	Cc1cc(/C=C2\C(=O)ON=C2c2cccs2)cc(C)c1O	–	–
4.96	5.35	CC(=O)Oc1ccc(/C=C2\C(=O)ON=C2c2cccs2)cc1	65	81
5.72	5.10	COc1ccc(OC)c(C2=NOC(=O)/C2=C\c2cccs2)c1	59	100
5.09	4.00	O=C(O)COc1ccc(/C=C2\C(=O)ON=C2c2cccs2)cc1	-7	–
5.68	5.38	CN(C)c1ccc(/C=C2\C(=O)ON=C2c2cccs2)cc1	89	88
6.15	4.96	COc1ccc(C2=NOC(=O)/C2=C\c2cccs2)cc1	44	100
5.92	5.60	COc1ccc(/C=C2\C(=O)ON=C2c2cccs2)cc1	96	89
4.82	5.36	O=C1ON=C(c2cccs2)/C1=C/c1ccccc1	88	81
5.92	5.15	COc1ccccc1C1=NOC(=O)/C1=C\c1cccs1	66	100
4.85	–	O=C1ON=C(c2ccccc2)/C1=C/c1ccccc1	–	–
